The source of these data is US20040209959A1, “Congeners of acetaminophen and related compounds as substrates for fatty acid conjugation and their use in treatment of pain, fever and inflammation” (priority 2001, published 2004).

Molecules are shown by their SMILES.

For orientation: EC50 means the midpoint of the concentration-response curve. Higher therefore signals lower potency in that assay.

In data set [1] the target is T1, vanilloid receptors on vasodilator sensory nerves (Rattus norvegicus, UniProt O35433).
T1 construct: from tissue; host or cells: mesenteric arteries from female Wistar-Hannover rats
The data set is described as follows: Vasodilator effect in isolated rat mesenteric artery segments contracted with phenylephrine. Conditions: for effect on the vasodilator action of AM404: capsazepine 3 μM, ruthenium red 1 μM; for activation of vanilloid receptors on perivascular sensory nerves: FIG. 7; for inhibition of the effect of capsaicin (antagonist action on vanilloid receptors): 1 mM acetaminophen or 100 μM p-aminophenol for 30 min; for vasorelaxation per se (agonist action on vanilloid receptors): p-aminophenol in the presence of ascorbic acid; for relaxation of arterial segments contracted with phenylephrine: FIG. 7c. Here is the method: Recording of tension. Experiments were performed on mesenteric arteries from female Wistar-Hannover rats (250 g) as described (48). Briefly, the arteries were cut into ring segments and mounted in tissue baths, containing aerated physiological salt solution (5% CO2 and 95% O2; 37° C.; pH 7.4). […] We studied relaxant responses in preparations contracted with phenylephrine. When stable contractions were obtained, substances were added cumulatively to determine concentration-response relationships.
Calculations and statistics. Data are presented as means ±S.E.M. (vertical lines in figures), and n indicates the number of animals unless otherwise stated. GraphPad Prism 3.0 software was used for curve fitting (non-linear regressions) and calculations of pEC50 values. Mann-Whitney U-test or Student's t-test on log transformed values was used for statistical analysis. Statistical significance was accepted when P<0.05.

The procedure of data set [2]: In vivo experiments. Acetaminophen ([…]) or vehicle (saline) at a volume of 2-3 ml was given to female Wistar-Hannover rats (200-300 g) by an intraperitoneal injection. Some rats were pretreated with PMSF (10 mg kg^−1) or vehicle (saline:PEG 6000; 1:10 w/w) given subcutaneously (2-3 ml) 20 min before administration of acetaminophen. Approximately 20 min after injection of acetaminophen, the animals were killed to collect brain, liver, spinal cord and arterial blood. […] PMSF (0.1 mM) and ascorbic acid (0.3 mM) were also present in the Tris buffer and added to the blood samples to prevent degradation of fatty acid amides and p-aminophenol, respectively.
Quantitative analyses. The extraction residues were reconstituted in 100 μl methanol except for p-aminophenol, for which 100 μl 0.5% acetic acid was used. The quantitative analyses were performed using a Perkin Elmer 200 liquid chromatography system with autosampler (Applied Biosystems), coupled to an API 3000 tandem mass spectrometer (Applied Biosystems/MDS-SCIEX). All mobile phases were water-methanol gradients, containing 0.5% acetic acid, and the flow rate was 200 μl min^−1 except for arachidonic acid where it was 400 μl min^−1.
AM404, arachidonoyldopamine, arachidonoylserotonin and anandamide.
p-Aminophenol. Sample aliquots of 2 μl were injected on a Genesis phenyl column (150×2.1 mm; Jones). The mobile flow was initially 97% water for 2 min. […] The electrospray ion source was set at 450° C. and used in the positive ion mode. The ion spray voltage and declustering potential were set to 4500 volts and 55 volts, respectively. M/z 109.9/64.6 with a collision energy of 31 volts was used for the quantitative determinations.

The target of another data set is T2, COX-2 (Ovis aries, UniProt P79208).
T2 sequence (P79208 17-603): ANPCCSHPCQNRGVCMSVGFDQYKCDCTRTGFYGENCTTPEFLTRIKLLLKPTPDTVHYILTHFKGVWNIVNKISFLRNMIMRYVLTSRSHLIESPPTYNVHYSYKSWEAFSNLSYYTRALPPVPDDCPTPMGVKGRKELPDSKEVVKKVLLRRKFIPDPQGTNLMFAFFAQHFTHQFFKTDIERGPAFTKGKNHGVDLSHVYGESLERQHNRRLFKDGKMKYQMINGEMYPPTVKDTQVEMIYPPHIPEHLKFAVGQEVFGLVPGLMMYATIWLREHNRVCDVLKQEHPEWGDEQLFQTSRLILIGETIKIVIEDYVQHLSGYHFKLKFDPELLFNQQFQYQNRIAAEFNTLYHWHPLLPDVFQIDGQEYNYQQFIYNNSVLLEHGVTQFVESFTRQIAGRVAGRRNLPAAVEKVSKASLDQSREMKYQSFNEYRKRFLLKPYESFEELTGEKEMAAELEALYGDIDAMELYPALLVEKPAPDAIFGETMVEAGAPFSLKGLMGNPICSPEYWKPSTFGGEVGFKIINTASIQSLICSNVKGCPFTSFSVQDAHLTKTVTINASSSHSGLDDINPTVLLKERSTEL
The conditions noted are these: isolated enzyme preparation; 10 μM arachidonic acid. Here is the method: (§1) COX activity was measured as prostaglandin formation in the presence of 10 μM arachidonic acid.
(§2) COX-1 and COX-2 assays. COX-1 and COX-2 activity was determined in the presence of 10 μM arachidonic acid using a COX (ovine) inhibitor screening assay (Cayman). Drugs were incubated with the enzyme preparation 8 min before application of arachidonic acid. Prostaglandin formation was used as a measure of COX activity and quantified via enzyme immunoassay (EIA).

For another data set, the target named is T3, COX-1 (Ovis aries, UniProt P05979).
T3 sequence (P05979 25-600): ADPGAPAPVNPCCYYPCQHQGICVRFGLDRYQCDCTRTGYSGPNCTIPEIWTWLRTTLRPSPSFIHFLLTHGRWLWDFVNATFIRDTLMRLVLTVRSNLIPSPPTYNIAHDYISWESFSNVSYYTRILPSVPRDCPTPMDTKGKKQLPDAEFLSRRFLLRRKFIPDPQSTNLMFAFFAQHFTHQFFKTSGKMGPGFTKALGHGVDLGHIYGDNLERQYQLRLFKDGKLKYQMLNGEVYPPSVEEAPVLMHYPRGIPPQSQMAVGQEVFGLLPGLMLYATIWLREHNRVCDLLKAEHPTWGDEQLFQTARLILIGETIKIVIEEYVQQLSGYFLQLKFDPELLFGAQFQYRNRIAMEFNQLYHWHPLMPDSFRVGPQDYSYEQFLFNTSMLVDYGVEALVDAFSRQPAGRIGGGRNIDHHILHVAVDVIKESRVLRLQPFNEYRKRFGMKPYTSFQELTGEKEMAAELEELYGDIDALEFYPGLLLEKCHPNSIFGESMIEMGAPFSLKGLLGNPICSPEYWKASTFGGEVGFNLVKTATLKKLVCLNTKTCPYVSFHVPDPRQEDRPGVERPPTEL
The conditions noted are these: isolated enzyme preparation; 10 μM arachidonic acid. As to the method:
as §1, §2

The conditions of data set [3]: female, Wistar-Hannover, rat, pH 7.6.
The source holds these as a separate data set.
Data set [4] has as its system AM404 production in brain homogenates. The data set is described as follows: Inhibition of AM404 formation in rat brain homogenates. Conditions: 1 hour pre-incubation, p-aminophenol plus arachidonic acid each 100 μM. The class given is biochemical.
Procedure: (§3) Tissue homogenate experiments. The brain, liver, spinal cord and dorsal root ganglia from female Wistar-Hannover rats (250 g) were homogenised in a Tris buffer (10 mM, pH 7.6), containing EDTA (1 mM), to give 90-330 mg tissue ml^−1. We carried out experiments in aliquots of 200 μl homogenate at 37° C. as further explained in the text. The reactions were stopped by adding 1 ml ice-cold acetone containing 1 μM [^2H8]-anandamide. The samples were kept on ice until the acetone phase was evaporated in vacuo.
The test system of the next data set is anandamide hydrolysis. The data set is described as follows: Inhibition of [2H8]-anandamide hydrolysis in rat brain homogenates. Format: biochemical. Conditions: 1 hour pre-incubation, [2H8]-anandamide 10 μM.
[5] abbreviates: PMSF 10 mg kg^−1 s.c. 20 min before acetaminophen.

T1 sequence (O35433 whole entry): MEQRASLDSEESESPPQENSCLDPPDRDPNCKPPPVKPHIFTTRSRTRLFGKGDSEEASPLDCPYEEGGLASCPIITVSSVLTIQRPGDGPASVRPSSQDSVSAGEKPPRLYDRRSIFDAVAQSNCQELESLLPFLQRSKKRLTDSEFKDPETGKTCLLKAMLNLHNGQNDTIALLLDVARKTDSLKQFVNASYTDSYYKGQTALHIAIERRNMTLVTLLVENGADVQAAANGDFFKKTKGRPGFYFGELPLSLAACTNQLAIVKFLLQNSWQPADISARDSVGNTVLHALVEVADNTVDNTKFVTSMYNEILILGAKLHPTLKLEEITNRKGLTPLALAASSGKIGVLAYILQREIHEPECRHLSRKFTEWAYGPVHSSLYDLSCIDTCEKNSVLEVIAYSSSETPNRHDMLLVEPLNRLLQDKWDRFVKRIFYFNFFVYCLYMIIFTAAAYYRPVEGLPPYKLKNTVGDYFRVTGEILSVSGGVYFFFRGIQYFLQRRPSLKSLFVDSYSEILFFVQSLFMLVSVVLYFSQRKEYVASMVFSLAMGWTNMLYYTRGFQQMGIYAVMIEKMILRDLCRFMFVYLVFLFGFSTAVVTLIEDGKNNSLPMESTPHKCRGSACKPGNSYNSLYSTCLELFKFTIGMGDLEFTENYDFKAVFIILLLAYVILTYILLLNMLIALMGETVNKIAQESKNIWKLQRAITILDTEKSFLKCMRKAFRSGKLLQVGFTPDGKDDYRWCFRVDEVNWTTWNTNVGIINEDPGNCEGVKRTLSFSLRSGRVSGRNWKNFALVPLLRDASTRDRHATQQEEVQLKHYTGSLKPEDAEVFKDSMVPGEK
Procedure for anandamide hydrolysis: as §3
Sample aliquots of 5 μl were injected on a Genesis C18 column (50×2.1 mm; Jones). The HPLC was operated isocratically at 20% water and 80% methanol. The electrospray ion source was operating in the negative ion mode at 370° C., the ion spray voltage was −3000 volts and the declustering potential was −120 volts. M/z 310.8/267.0 with a collision energy of −22 volts was used for the quantitative determinations.

For `Oc1cc2c(cc1O)CN(C(=S)NCCc1ccc(Cl)cc1)CCC2` [capsazepine], the “effect on the vasodilator action of AM404” value in data set [1] was “inhibited”.

For the molecule `CCCCC/C=C\C/C=C\C/C=C\C/C=C\CCCC(=O)OCC(O)CO` (stereo not drawn) [1-arachidonoylglycerol], the “activation of vanilloid receptors on perivascular sensory nerves” value (from here on “activation of vanilloid receptors”) in data set [1] is on record as “activators”.

On to `CC(=O)Nc1ccc(O)cc1` [acetaminophen], for which the “AM404 in brain, representative chromatogram of one animal” value in data set [2] (female, Wistar-Hannover, rat, in vivo, 20 min) stood at 23.4 pmol/g. Moreover, in data set [1], the “inhibition of the effect of capsaicin (antagonist action on vanilloid receptors)” value is “nor inhibited the effect of capsaicin” and the “vasorelaxation per se (agonist action on vanilloid receptors)” value is recorded as “neither induced vasorelaxation per se”. Besides, the “effect on COX-2 activity” value at COX-2 was “No effect”. For the same molecule, the “effect on COX-1 activity” value on COX-1 is on record as “No effect”. Further, the “AM404 formation in brain homogenates” value in data set [3] (100 μM) is listed as “did not result in any detectable levels of AM404”. For the same molecule, the “AM404 in brain homogenates” value in data set [3] (1 mM) came out at 14 ± 2.6 pmol/g.

Regarding `Nc1ccc(O)cc1` [p-aminophenol], in data set [1], the “inhibition of the effect of capsaicin (antagonist action on vanilloid receptors)” value was “nor inhibited the effect of capsaicin” and the “vasorelaxation per se (agonist action on vanilloid receptors)” value is given as “neither induced vasorelaxation per se”. Also, the “effect on COX-2 activity” value on COX-2 is given as “No effect”. Further, the “effect on COX-1 activity” value on COX-1 is recorded as “No effect”.

Take `N.N.N.N.N.N.N.N.N.N.N.N.N.N.[Cl-].[Cl-].[Cl-].[Cl-].[Cl-].[Cl-].[O-2].[O-2].[Ru+3].[Ru+3].[Ru+4]` [ruthenium red]: the “effect on the vasodilator action of AM404” value in data set [1] is “inhibited”.

For the molecule `CCCCC/C=C\C/C=C\C/C=C\C/C=C\CCCC(=O)NCCc1ccc(O)c(OC)c1` [arachidonoyl-3-methoxytyramine], in data set [1], the “activation of vanilloid receptors” value is “activators” and the “relaxation of arterial segments contracted with phenylephrine” value was “concentration-dependent relaxation”.

`CCCCC/C=C\C/C=C\C/C=C\C/C=C\CCCC(=O)NCCc1ccc(O)cc1` [arachidonoyltyramine]: in data set [1], the “activation of vanilloid receptors” value is “activators” and the “relaxation of arterial segments contracted with phenylephrine” value is given as “concentration-dependent relaxation”.

As for `CCCCC/C=C\C/C=C\C/C=C\C/C=C\CCCC(=O)OC(CO)CO` [2-arachidonoylglycerol], the “activation of vanilloid receptors” value in data set [1] is “activators”.

Regarding `NCCc1c[nH]c2ccc(O)cc12` [serotonin], the production of arachidonoylserotonin result (brain homogenates, serotonin 100 μM plus arachidonic acid 100 μM, 1 hour) is given as “substantial amounts”.

For the molecule `O=S(=O)(F)Cc1ccccc1` [PMSF, phenyl-methyl-sulphonylfluoride], in data set [2] (setting [5]), the “effect on formation of AM404 in brain after acetaminophen” value is on record as “abolished” and the “reduction of p-aminophenol content in brain after acetaminophen” value came out at 48%. The “pEC50 for inhibition of the formation of AM404” value in data set [4] turned out to be 5.41±0.03. Also, the “pEC50 for inhibition of the hydrolysis of anandamide” value with anandamide hydrolysis turned out to be 5.28±0.07. For the same molecule, under “PMSF 100 μM added 1 hour before”, the “effect on formation of arachidonoyldopamine and arachidonoylserotonin” value is “almost abolished”.

In turn, `CCCCCC=CCC=CCC=CCC=CCCCC(=O)Nc1ccc(O)cc1` [AM404, N-(4-hydroxyphenyl)-5,8,11,14-eicosatetraenamide] showed an EC50 in data set [1] of 0.0158 µM. For the same molecule, the “relaxation of arteries pre-treated with capsaicin” value in data set [1] (capsaicin 1 μM for 30 min) is “unable to relax”. On COX-2, the “effect on COX-2 activity” value is given as “concentration-dependently inhibited”. Moreover, at COX-1, the “effect on COX-1 activity” value is “concentration-dependently inhibited”.

Regarding `NCCc1ccc(O)c(O)c1` [dopamine], the production of arachidonoyldopamine entry (brain homogenates, dopamine 100 μM plus arachidonic acid 100 μM, 1 hour) is reported as “substantial amounts”.
